Measured values: patent US5587397A, “Reduction of elevated blood lactate using twice-daily dichloroacetate” (Cypros Pharmaceutical Corporation, priority 1995, dated 1996)
Entries after “also recorded” stand apart in the source; their conditions may differ. Like-named read-outs stand apart in the source and are kept apart here.

Assays:
serum lactate = assay: Serum/blood lactate concentration in human volunteers after intravenous DCA infusion; assay type: in vivo; conditions: for Serum lactate, baseline: before infusion; for Serum lactate, baseline / Serum lactate just before second infusion / Serum lactate 14 h after second infusion: mean ± SEM; for Serum lactate just before second infusion: second infusion 8 h later; for Level of statistical significance, (b) vs. placebo: just before second infusion; for Persistence of lactate reduction relative to DCA clearance: 60 mg/kg
Protocol: Eighteen human beings entered this study; all provided informed consent that was acceptable to an independent Institutional Review Board, which also approved the study design and toxicological coverage. The human subjects were all healthy, were fasted for 18 hours prior to the study infusions, and were all within 85% to 115% of ideal body weight, using actuarial tables published by the Metropolitan Life Insurance Company. Each received an accurately measured meal (late breakfast, 821 kcal total including 116 g of carbohydrate, 30 g of protein, and 32 g of fat).
(§1) Teflon venous catheters were placed in both forearms of all subjects. One, for drug administration, was left in place for 10 hours. The other, for blood sampling, was left in place for about 30 hours. Both venous cannulae were regularly flushed with a heparin-saline solution to avoid any risk of clogging or clotting. When blood was sampled, the first-drawn fluid was discarded, so that blood samples were not contaminated with the heparin-saline solution.
(§2) Sodium dichloroacetate (NaDCA; purchased in powdered form from TCI America, Inc., Portland, Oreg.) was dissolved in saline solution to provide a 10% sterile solution (i.e., 10 g of NaDCA in 100 ml solution) at a contract lab. The vials containing 10% solution were shipped to the study site, in Indiana, and then diluted to form approximately 2% solutions in intravenous drip bags. Exact concentrations depended to some extent on the weight of each patient; all concentrations were within 20 % of isotonic levels. A 2% solution was administered through one cannula into each test subject over a period of 30 minutes, at a dosage of 30 mg/kg (i.e, 30 milligrams of NaDCA salt per kilogram of body weight). The average total weight of NaDCA infused into each patient was about 2.26±0.54 g; total volume of solution was about 100 ml. […] Nine subjects received a single infusion of DCA, and nine received the saline placebo.
(§3) Samples of venous blood from the other cannula (in the opposite forearm) were taken, before and several times periodically after the intravenous infusion. The infusions were number-coded, and all solutions (both active and placebo) were colorless; therefore, this was a double-blinded study.
Blood samples were collected into tubes containing sodium heparin, and spun at 64 G (i.e., 64 times normal gravity) for 10 minutes, to remove blood cells. The supernatant was then deproteinized, using 6% perchloric acid; various other agents, such as acetonitrile, could alternately be used if desired. The deproteinized liquid was then centrifuged again at 64 G for 10 minutes, and the supernatant was decanted and divided into 0.20 mL aliquots. At least one aliquot was stored at -40° C. as a backup in case checks were needed, while tests were run on other aliquots.
Blood samples were assayed for lactate concentration at a registered clinical laboratory (SmithKline Beckman, in Evansville, Ind.), using a commercial assay kit sold by Sigma Chemical Company (St. Louis, Mo.). This assay uses an enzymatic procedure involving lactate dehydrogenase; it adds glycine to the samples as a buffer, along with a standardized excess amount of NAD. The lactate dehydrogenase enzyme converts lactate to pyruvate, and the hydrogen atoms that are liberated by this reaction convert NAD to reduced NAD (NADH). The NADH absorbs ultraviolet light at 340 nm, and the level of absorbance (measured by a spectrophotometer) is directly proportional to the amount of NADH in the sample, and thus to the amount of lactate that was initially present in the sample.
In a second set of test subjects (18 total: 9 test subjects and 9 saline placebo controls), sodium DCA was administered in an identical manner, using a single 30-minute infusion, at a dosage of 60 mg/kg. […]

[1] = DCA clearance from the blood of human subjects after intravenous infusion; assay type: in vivo
Protocol: as §1, §2, §3
Blood samples were collected into tubes containing sodium heparin, and spun at 64 G (i.e., 64 times normal gravity) for 10 minutes, to remove blood cells. The supernatant was then deproteinized, using 6% perchloric acid; various other agents, such as acetonitrile, could alternately be used if desired. […]

[2] = Reported DCA pharmacokinetics in dogs (literature); assay type: in vivo, dog; conditions: dogs vs. 0.5 hour in humans
Source text: Accordingly, dogs cannot be used as reliable models or predictors for the pharmacokinetic effects of DCA in humans.

[3] = Reported DCA concentration and clearance in rats (literature); assay type: in vivo, rat; conditions: oral 100 mg/kg vs. human i.v.
Protocol: Evans et al 1981 administered DCA orally, in 100 mg/kg doses, either once, or daily for seven days.

[4] = Side effects of DCA infusion in healthy volunteers; assay type: in vivo, human; conditions: 100 mg/kg infused within 30 minutes
Protocol: Accordingly, to ensure that this effect would not occur when DCA was administered, an initial dose of 100 mg/kg NaDCA was infused into test subjects, and a second dose of 50 mg/kg was infused 8 hours later.
The dose of 100 mg/kg is the highest dose so far administered to human beings within 30 minutes. […] This was not considered clinically significant and needed no treatment; it would be relatively unimportant in most of the pathological states that are proper subjects for treatment using DCA. However, the sedation side effect was regarded as creating a practical limit (100 mg/kg infused in 30 minutes or less) for tests on healthy volunteers.

[5] = humans, cited from earlier work
[6] = dogs; Lukas et al 1980, Ribes et al 1979; cited from earlier work
[7] = cited from earlier work
[8] = tested on: pyruvate dehydrogenase enzyme complex; conditions: rats; Evans 1982; cited from earlier work
[9] = especially over prolonged periods, Stacpoole et al 1979; cited from earlier work
[10] = 100 + 50 group, 14 h after second infusion

O=C([O-])C(Cl)Cl.[Na+] [DCA, sodium dichloroacetate]
Duration of blood lactate reduction (FIG. 3 legend) (serum lactate; 60 mg/kg as printed in legend): more than 8 hours
Persistence of reduction in serum lactate after the first infusion (serum lactate; 100 mg/kg followed by 50 mg/kg 8 hours later): more than 22 hours
Duration of lactate reduction (serum lactate; 100 mg/kg single i.v. infusion): > 8 h
Persistence of lactate reduction relative to serum DCA (serum lactate; 100 mg/kg single i.v. infusion, in words): persistent reduction in serum lactate levels which significantly outlasted the serum DCA concentrations
Serum lactate, baseline (serum lactate; 60 + 30 group (mg/kg)): 1.19 ± 0.24 mM
Serum lactate just before second infusion (serum lactate; 60 + 30 group (mg/kg)): 0.72 ± 0.15 mM
Serum lactate 14 h after second infusion (serum lactate; 60 + 30 group (mg/kg)): 0.94 ± 0.12 mM
Level of statistical significance, (c) vs. placebo (serum lactate; 60 + 30 group, 14 h after second infusion): 0.021
Level of statistical significance, (b) vs. placebo (serum lactate; 60 + 30 group): 0.009
Serum lactate, baseline (serum lactate; 100 + 50 group (mg/kg)): 0.84 ± 0.10 mM
Serum lactate just before second infusion (serum lactate; 100 + 50 group (mg/kg)): 0.39 ± 0.04 mM
Serum lactate 14 h after second infusion (serum lactate; 100 + 50 group (mg/kg)): 0.32 ± 0.08 mM
Level of statistical significance, (c) vs. 60 + 30 (serum lactate; [10]): 0.004
Level of statistical significance, (c) vs. placebo (serum lactate; [10]): < 0.001
Level of statistical significance, (b) vs. placebo (serum lactate; 100 + 50 group): < 0.001
Time course of DCA concentration and lactate reduction (serum lactate; single 30 mg/kg i.v. infusion, in words, FIG. 1, 30 mg/kg): a peak of DCA concentration which rapidly dropped off, and a similar peak in lactate reduction which disappeared fairly rapidly; also recorded: closely paralleled (over time) the clearance of DCA from the blood
Duration of blood lactate reduction (serum lactate; single 30 mg/kg i.v. infusion, in words, 30 mg/kg): returned to normal levels within a few hours
Duration of blood lactate reduction (serum lactate; single 30 mg/kg i.v. infusion, in words, listed as NaDCA, 30 mg/kg): lasted only a few hours
Reversal of the decline in serum lactate levels (serum lactate; single 60 mg/kg i.v. infusion, at 6.5 hours and afterwards): no evidence of reversal of the decline in serum lactate levels
Persistence of lactate reduction relative to DCA clearance (serum lactate; single 60 mg/kg i.v. infusion, in words): significantly outlasted the persistence of serum DCA levels
Persistence of lactate reduction relative to DCA clearance (serum lactate; single 60 mg/kg i.v. infusion, in words, listed as NaDCA): lasted substantially longer and persisted even after substantially all of the DCA had been cleared from the patient's blood; also recorded: substantially outlasted the clearance of DCA from the circulation
Duration of reduction in plasma lactate after start of second infusion (serum lactate; two infusions eight hours apart): more than 12 hours
Duration of serum lactate reduction using two injections over 24 h (serum lactate; two injections, about 40 mg/kg DCA or more per injection): ≥ 24 h
Clearance rate of 30 mg/kg dose with vs. without prior DCA exposure ([1]; 30 mg/kg i.v., prior 60 mg/kg 8 hours earlier, FIG. 4): comparable
Clearance rate of 50 mg/kg dose after prior exposure vs. single 60 mg/kg dose ([1]; 50 mg/kg i.v., prior 100 mg/kg 8 hours earlier): similar
DCA clearance from blood ([1]; single 60 mg/kg i.v., by 6.5 hours): nearly all of the DCA had already been avidly cleared from the blood
Half-life in dogs relative to humans [2]: about 40 times longer
Inferred plasma concentration relative to that in human patients dosed intravenously [3]: about 1/10
Duration of transient sedation or sleepiness [4]: about 20 minutes
Transient sedation or sleepiness [4]: a number of subjects reported transient sedation or sleepiness
Half-life ([5]; Lukas et al 1980, Ribes et al 1979): 30 min
Half-life ([5]; Wells et al 1980): 31 min
Time to complete elimination ([5]; Wells et al 1980): ≤ 5 h
Clearance from circulating blood ([5]; in words): rapidly cleared
Half-life [6]: 1140 to 1440 min
Peak DCA concentration in liver tissue ([7]; oral 100 mg/kg, once or daily for seven days, Evans et al 1981): about 25 μg of DCA per gram of liver tissue
DCA concentration in the liver over time ([7]; rats, Evans 1982): declined rapidly with time
DCA clearance ([7]; rats, in words): fairly rapid
Activation of the pyruvate dehydrogenase enzyme complex over time [8]: dropped off rapidly with time
Toxic effects of oral administration [9]: may have toxic effects
